The results in this text go back to publication PMC7594198 (International Journal of Nanomedicine, 2020).

In experiment [1] the target is T1, hCG protein (Homo sapiens, UniProt P01215+P0DN86). As to the kind of experiment: SPR kinetics of peptide-hCG binding, GO-based chip, PBS buffer. The conditions noted are these: hCG 10 pM-1 nM, 30 μL/min, 1:1 Langmuir model. A general note: SPR reads the build-up and loss of mass on a sensor chip optically.
Experiment [2] addresses T1, hCG protein. As to the kind of experiment: SPR kinetics of peptide-hCG binding, carboxyl-GO chip, clinical serum samples.
Experiment [3] deals with peptide probe immobilized on carboxyl-GO chip. Nature of the experiment: SPR selectivity test with interfering proteins, PBS buffer. Format: binding. The conditions noted are these: for interference signal: 500 pM, carboxyl-GO-based SPR aptasensor, PBS and spiked 10% serum; for average SPR angle shift: protein 500 pM, PBS buffer, 60 μL/min, measured six times.
Experiment [4] shares this test system. As to the kind of experiment: SPR selectivity test with interfering proteins, spiked 10% serum. The conditions noted are these: protein 500 pM, 60 μL/min, measured six times. Format: binding.

T1 sequence (P01215 25-116, other chains not shown): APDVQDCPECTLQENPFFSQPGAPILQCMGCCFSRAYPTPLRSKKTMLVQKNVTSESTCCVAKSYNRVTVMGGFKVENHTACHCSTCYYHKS

H-PPLRINRHILTR-OH [peptide] showed a KA on hCG protein [1] of 1.41e+10 M⁻¹. The ka at hCG protein [1] was 7.32 ×10^6 M^−1S^−1. Besides, at hCG protein [1], the kd is 5.22 ×10^−4 S^−1. Also, the “binding constant KA” value on hCG protein [2] (serum FDSW-1, 19 weeks) worked out at 7.22e+10 M⁻¹; at hCG protein [2] (serum FDSW-2, 14 weeks), 9.39e+10 M⁻¹; at hCG protein [2] (serum FDSW-3, 12 weeks), 2.033e+11 M⁻¹; on hCG protein [2] (serum FDSW-4, 12 weeks), 5.71e+10 M⁻¹; at hCG protein [2] (serum FDSW-5, 16 weeks), 5.14e+10 M⁻¹; at hCG protein [2] (serum FDSW-6, 17 weeks), 1.39e+11 M⁻¹. In addition, the “binding constant KA” value is 2.819e+11 M⁻¹ at hCG protein [2] (serum NPW-1, 15 weeks); 2.763e+11 M⁻¹ on hCG protein [2] (serum NPW-2, 12 weeks); 1.28e+10 M⁻¹ at hCG protein [2] (serum NPW-3, 14 weeks); 1.48e+10 M⁻¹ at hCG protein [2] (serum NPW-4, 17 weeks).
For “pregnancy-associated plasma protein A2 [PAPP-A2]”, in experiment [3], the interference signal result is given as “close to that of a blank solution” and the “average SPR angle shift” value stood at 2.39 m^o. For the same molecule, in experiment [4], the “average SPR angle shift” value was found to be 2.51 m^o.
For “pregnancy-associated plasma protein A [PAPP-A]”, in experiment [3], the interference signal result is “close to that of a blank solution” and the “average SPR angle shift” value came to 1.37 m^o. The “average SPR angle shift” value in experiment [4] worked out at 2.42 m^o.
Turning to bovine serum albumin [BSA], in experiment [3], the interference signal entry was “close to that of a blank solution” and the “average SPR angle shift” value amounted to 1.31 m^o. Besides, the “average SPR angle shift” value in experiment [4] is on record as 2.60 m^o.

B1: human cytokeratin 19 (protein, UniProt P08727 1-400, looked up)
Keratin, type I cytoskeletal …: MTSYSYRQSSATSSFGGLGGGSVRFGPGVAFRAPSIHGGSGGRGVSVSSARFVSSSSSGAYGGGYGGVLTASDGLLAGNEKLTMQNLNDRLASYLDKVRALEAANGELEVKIRDWYQKQGPGPSRDYSHYYTTIQDLRDKILGATIENSRIVLQIDNARLAADDFRTKFETEQALRMSVEADINGLRRVLDELTLARTDLEMQIEGLKEELAYLKKNHEEEISTLRGQVGGQVSVEVDSAPGTDLAKILSDMRSQYEVMAEQNRKDAEAWFTSRTEELNREVAGHTEQLQMSRSEVTDLRRTLQGLEIELQSQLSMKAALEDTLAETEARFGAQLAHIQALISGIEAQLGDVRADSERQNQEYQRLMDIKSRLEQEIATYRSLLEGQEDHYNNLSASKVL
B1: in experiment [3], the interference signal result is “close to that of a blank solution” and the “average SPR angle shift” value came out at 1.65 m^o. Further, the “average SPR angle shift” value in experiment [4] is 1.74 m^o.
